Test results taken from US20210330611A1, “THERAPY FOR NEUROLOGICAL DISEASES/DISORDERS” (priority 2020, published 2021).
Where a name gives a salt, the structure may show the parent alone. Read-outs that look alike come from different tables or passages of the source.

Columns and labels:
[1] = test system: fibrin-induced microglia activation; assay: Image-based assay of fibrin-induced microglia activation (HTS and dose response); format: cell-based, rat; details: for inhibition at 10 µM: Rattus norvegicus, Microglia, read-out: Fibrin % inhibition
[2] = test system: fibrin- and LPS-induced microglia activation; assay: cells; format: cell-based, rat
primary rat microglia [3] = assay: Cell toxicity (dead cells, size <150 μm2) in LPS assay
primary rat microglia [4] = assay: Cell toxicity (dead cells, size <150 μm2) in coated fibrin (cFib) assay;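 also: share of dead cells sized under 150 µm2 at 10 µM in fibrin-stimulated microglia HTS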
[5] = test system: LPS-induced microglia activation; assay: Image-based assay of LPS-induced microglia activation (HTS and dose response); format: cell-based, rat; details: for inhibition at 10 µM: Rattus norvegicus, Microglia, read-out: LPS % inhibition
[6] = primary HTS, 10 μM, fibrin-stimulated primary microglia
[7] = primary HTS, 10 μM, LPS assay, dead cells size <150 μm2
[8] = primary HTS, 10 μM, fibrin assay, dead cells size <150 μm2
[9] = primary HTS, 10 μM, LPS-stimulated primary microglia
[10] = primary microglia HTS, fibrin stimulation, increased cell size (>800 μm^2) as marker of activation
[11] = quadrant by fibrin and LPS inhibition in HTS of 1907 compounds
[12] = primary microglia HTS, LPS stimulation, decreased size (<150 μm^2) as marker of toxicity
[13] = primary microglia HTS, fibrin stimulation, decreased size (<150 μm^2) as marker of toxicity
[14] = 48 h, primary microglia HTS, LPS stimulation, increased cell size (>800 μm^2) as marker of activation
[15] = primary microglia HTS, fibrin stimulation, activation = cell size >800 μm2
[16] = primary microglia HTS, LPS stimulation, toxicity = cell size <150 μm2
[17] = primary microglia HTS, fibrin stimulation, toxicity = cell size <150 μm2
[18] = 48 h, primary microglia HTS, LPS stimulation, activation = cell size >800 μm2

SMILES	inhibition at 10 µM [1, 6] [%]	Quadrant (FIG. 5b) ([2]; primary HTS, 10 μM)	LPS % cell toxicity (primary rat microglia [3]; [7]) [%]	Fibrin % cell toxicity (primary rat microglia [4]; [8]) [%]	inhibition at 10 µM [5, 9] [%]	Quadrant (FIG. 5b) [2, 11]	LPS % cell toxicity (primary rat microglia [3]; [12]) [%]	Fibrin % cell toxicity (primary rat microglia [4]; [13]) [%]	other results
C[N+]12CCC(CC1)C(OC(=O)C(O)(c1ccccc1)c1ccccc1)C2 (centres unmarked) [Clidinium Bromide]	-20	Q4	0	1	9				
Cc1ncc(CNC(=O)N(CCCl)N=O)c(N)n1 [Nimustine]						Q4	0	1	inhibition at 10 µM [1, 10]: -1%; inhibition at 10 µM [5, 14]: 10%
CC(=O)OC[C@H]1O[C@@H]([S-])[C@H](OC(C)=O)[C@@H](OC(C)=O)[C@@H]1OC(C)=O.CCP(CC)CC.[Au+] [Auranofin]						Q2	98	94	Fibrin % inhibition [1, 10]: 106%; LPS % inhibition ([5]; primary microglia HTS, LPS stimulation, increased cell size (>800 μm^2) as marker of activation): 106%
NS(=O)(=O)c1ccc(C(=O)O)cc1 [Carzenide]	-24	Q4	0	1	14				
CN1CCC(=C2c3ccccc3CC(=O)c3sccc32)CC1 [Ketotifen]						Q4			inhibition at 10 µM [1, 15]: 1%; LPS % cell toxicity (primary rat microglia [3]; [16]): 0%; Fibrin % cell toxicity (primary rat microglia [4]; [17]): 1%; inhibition at 10 µM [5, 18]: 15%
CS(=O)(=O)c1ccc([C@@H](O)[C@@H](CF)NC(=O)C(Cl)Cl)cc1 [Florfenicol]						Q4			inhibition at 10 µM [1, 15]: -12%; LPS % cell toxicity (primary rat microglia [3]; [16]): 1%; Fibrin % cell toxicity (primary rat microglia [4]; [17]): 1%; inhibition at 10 µM [5, 18]: 16%
CN(C)c1cc(NC(=O)CNC(C)(C)C)c(O)c2c1C[C@H]1C[C@H]3[C@H](N(C)C)C(O)=C(C(N)=O)C(=O)[C@@]3(O)C(O)=C1C2=O [Tigecycline]									inhibition at 10 µM ([1]; primary microglia HTS, 10 μM, fibrin-stimulated, cell size >800 μm^2 as marker of activation): 7%; Quadrant (FIG. 5b) ([2]; HTS of 1907 compounds, quadrant by fibrin and LPS inhibition): Q4; LPS % cell toxicity (primary rat microglia [3]; primary microglia HTS, 10 μM, LPS assay, cell size <150 μm^2 as marker of toxicity): 0%; Fibrin % cell toxicity (primary rat microglia [4]; primary microglia HTS, 10 μM, fibrin assay, cell size <150 μm^2 as marker of toxicity): 0%; inhibition at 10 µM ([5]; primary microglia HTS, 10 μM, LPS-stimulated, cell size >800 μm^2 as marker of activation): 13%
Cc1ccnc2c1NC(=O)c1cccnc1N2C1CC1 [Nevirapine]						Q4	0	0	inhibition at 10 µM [1, 10]: 3%; inhibition at 10 µM [5, 14]: 15%
Cn1nnnc1SCC1=C(C(=O)O)N2C(=O)[C@@H](NC(=O)[C@H](OC=O)c3ccccc3)[C@H]2SC1 [Cefamandole Nafate]	-3	Q4	0	0	12				
CCN(CC)CCNC(C(=O)OCCC(C)C)c1ccccc1 (centres unmarked) [Camylofine Dihydrochloride]	-27	Q4	1	1	15				
CCCCCCNC(=O)n1cc(F)c(=O)[nH]c1=O [Carmofur]	-13	Q4	0	0	17				
Cc1cc(C)cc(OCC2CNC(=O)O2)c1 (centres unmarked) [Metaxalone]						Q4	0	1	inhibition at 10 µM [1, 10]: 13%; inhibition at 10 µM [5, 14]: 6%
O=C1NCC2(CCN(CCc3ccccc3)CC2)O1 [Fenspiride]						Q4			inhibition at 10 µM [1, 15]: -43%; LPS % cell toxicity (primary rat microglia [3]; [16]): 0%; Fibrin % cell toxicity (primary rat microglia [4]; [17]): 1%; inhibition at 10 µM [5, 18]: -1%
